Here are results for eight compounds from US20260374739A1, “SMALL MOLECULAR WEIGHT CHEMICAL COMPOUND TO ANTAGONIZE EPH-EPHRIN TETRAMERIZATION AND INHIBIT BIDIRECTIONAL SIGNALING” (THE BOARD OF REGENTS OF THE UNIVERSITY OF TEXAS SYSTEM, priority 2022, published 2026).

The test deals with T1, EphB1-EphrinB2 (Rattus norvegicus, UniProt P09759).
T1 construct: rat EphB1-Fc residues 18-538; mouse EB2-His residues 18-232; purchased R&D Systems (EphB1-Fc); Sino Biologicals (EB2-His)
T1 sequence (P09759 18-538): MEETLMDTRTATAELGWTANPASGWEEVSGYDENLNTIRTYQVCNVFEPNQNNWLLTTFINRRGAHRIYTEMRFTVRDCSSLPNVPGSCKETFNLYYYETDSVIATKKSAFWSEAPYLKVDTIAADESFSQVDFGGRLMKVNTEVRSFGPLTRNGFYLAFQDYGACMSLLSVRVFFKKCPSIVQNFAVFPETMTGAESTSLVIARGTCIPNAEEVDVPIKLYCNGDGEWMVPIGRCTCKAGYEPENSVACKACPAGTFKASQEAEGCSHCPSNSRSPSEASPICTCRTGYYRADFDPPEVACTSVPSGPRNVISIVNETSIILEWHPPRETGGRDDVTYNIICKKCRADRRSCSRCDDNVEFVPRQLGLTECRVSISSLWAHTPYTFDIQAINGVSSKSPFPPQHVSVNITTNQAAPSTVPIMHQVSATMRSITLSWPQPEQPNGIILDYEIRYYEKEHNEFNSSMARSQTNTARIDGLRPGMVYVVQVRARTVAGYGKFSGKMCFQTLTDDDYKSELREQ
In words: Octet RED384, immobilized rat EphB1-Fc binding to 30 nM mouse EB2-His (400 sec / 500 sec). Also noted: species or system mouse EphrinB2. As to the method:
FIGS. 9A-9B depict Octet RED384 kinetic analysis sensorgram data of 30 nM soluble mouse EphrinB2 (mEB2-His) protein binding to sensorchip immobilized rat EphB1-Fc (FIG. 9A) or mouse EphB4-Fc (FIG. 9B) protein and effect of increased concentration of A20. Association time was for 400 sec and dissociation time was for 500 sec. Binding assays were conducted in PBS containing 0.05% Tween-20 and 1% DMSO.
The experiments described above involve measurements following long-term incubation of proteins with compound and thus represent information after interaction homeostasis has been achieved (FIG. 5A, FIG. 5B, FIG. 5C, and FIG. 5D) or after complexes are extensively washed (ELISAs and pulldowns, FIG. 8). To further analyze biophysical activity of A20 in real-time, kinetic studies were performed using an Octet® RED384 system to visualize the effect of compound on EphB1-EB2 protein-protein binding dynamics. In these experiments, EphB1-Fc ectodomain protein was first sparsely immobilized onto a set of Octet biosensors, […], 1, 10, or 100 μM A20 for a 400 sec association step followed by exposure to buffer only for a 500 sec dissociation step. […] The sensorgram provides various data of the binding kinetics, such as on rates (kon), off rates (koff), and equilibrium dissociation constant (KD). […] Specifically, EphB2 forms a dimer with EphrinB2, and that two dimers then assemble together into a circular tetramer structure (see FIG. 10 and Himanen J P, Rajashankar K R, Lackmann M, Cowan C A, Henkemeyer M, and Nikolov DB. (2001). Crystal structure of an Eph receptor-ephrin complex. Nature 414:933-8, which is incorporated herein by reference in its entirety).
The distinct dimerization and tetramerization interfaces are indicated. Circular tetramers further cluster together to pack in the crystal via additional ligand-ligand (red arrow) and receptor-receptor (blue arrow) interfaces. Many studies by multiple groups show the circular tetramer and tetramer clusters are observed in vivo and that they are needed in order to form the active complex necessary for the transduction of Eph-Ephrin bidirectional signals. […] A variety of methods can be used to compare the different sensorgrams obtained from a dose-dependent run of a drug compound to quantify its LA activity and obtain IC50 information. Single time points in the assay can be picked and response signals obtained at the different compound doses can be compared, such as at 380 sec near the end of the association step or at 100 sec after start of the dissociation step.
Antagonists are classified as either competitive/reversible or irreversible, depending on how the particular inhibitor interacts with its protein targets. A reversible antagonist will bind receptor protein via non-covalent intermolecular forces, and it will eventually dissociate from the receptor, freeing the protein to bind either another antagonist chemical in the solution or its bona-fide ligand protein. […] A competitive antagonist is thought to bind to receptor protein at the same binding site/interface as the endogenous ligand (aka Ephrin), but without activating the receptor. Ligand and antagonist will thus compete for the same binding site on the receptor; when antagonist is bound to receptor it will prevent ligand binding and increasing concentrations of an antagonist will displace in a dose-dependent fashion the ability of ligand from binding the receptor. Since, most receptor antagonists participate in a reversible, non-covalent, competitive type of interaction, two Octet experiments were conducted to determine if this was indeed the mode of action of A20. To determine if A20 is a reversible inhibitor/antagonist, rEphB1-Fc was first immobilized onto sensor chips, then pre-exposed to 100 μM A20, then washed to remove A20, and after baseline measurements then tested for binding to 30 nM soluble mEB2-His protein. […]

Where [1] appears, read: Relative Dissociation IC50, rEphB1-mEphrinB2, immobilized rat EphB1, 50 nM soluble mouse EphrinB2, dissociation, relative.
[2] abbreviates: rEphB1-mEphrinB2, immobilized rat EphB1, 50 nM soluble mouse EphrinB2, association, absolute, read-out: Absolute Association IC50.
[3] abbreviates: rEphB1-mEphrinB2, immobilized rat EphB1, 50 nM soluble mouse EphrinB2, association, relative, read-out: Relative Association IC50.
The mark [4] stands for this setting: rEphB1-mEphrinB2, immobilized rat EphB1, 50 nM soluble mouse EphrinB2, dissociation, absolute, read-out: Absolute Dissociation IC50.
The mark [5] stands for this setting: Absolute Dissociation IC50, rEphB1-mEphrinB2, immobilized rat EphB1, 50 nM soluble mouse EphrinB2, dissociation, absolute.
Setting [6] is: EphB1-EB2, AUC, read-out: IC50 (area under the curve).

pIC50: −log10 of the molar value. Values joined by “and” are separate entries in the source; they are usually repeats but may differ in a detail not shown here. Identical values can stand only once. “Also recorded” adds a separate entry of the source. Like-named read-outs stand apart in the source and are kept apart here.

Turning to `Oc1ccc(CN2CCOCC2)c2cccnc12` [Compound 1, 5-(morpholinomethyl)quinolin-8-ol], the negative-log IC50 (pIC50) is, setting by setting: under setting [1], 5.48; under setting [2], 4.00; under setting [3], 4.00; under setting [4], 4.00.

On to `Oc1c(Cl)cc(CN2CCOCC2)c2cccnc12` [Compound 4, 4-((7-chloro-8-hydroxyquinolin-1-ium-5-yl)methyl)morpholin-4-ium chloride], for which the pIC50 is, setting by setting: under setting [5], 6.08; under setting [1], 6.19; under setting [2], 4.85; under setting [3], 6.03.

As for `Oc1c(Br)cc(CN2CCOCC2)c2cccnc12` [Compound 5, 7-bromo-5-(morpholinomethyl)quinolin-8-ol], under setting [6], the pIC50 was 5.03. The “mode of antagonism” value (reversibility 100 μM pre-exposure, competition 0.1-1000 nM EB2, listed as A20) is on record as “compound acts as a reversible inhibitor; also recorded: compound is a competitive inhibitor of EphB1-EB2 binding”.

As for `Oc1c(Br)cc(CN2CCOCC2)c2cccnc12` [Compound 6, 4-((7-bromo-8-hydroxyquinolin-1-ium-5-yl)methyl)morpholin-4-ium chloride], the pIC50 (100 sec dissociation, read-out: IC50 (response at 100 sec after dissociation step)) is 5.62; the negative-log IC50 (pIC50) (380 sec association, read-out: IC50 (response at 380 sec after association)) was 5.51; the negative-log IC50 (pIC50) under setting [6] was 5.44; the pIC50 under setting [2] was 4.55; the pIC50 under setting [3] is 6.13. For the same compound, for the setting “fold better than free-base”, the “antagonist activity of salt vs free-base” value was 2-3 fold.

On to `Oc1c(I)cc(CN2CCOCC2)c2cccnc12` [Compound 8, 4-((8-hydroxy-7-iodoquinolin-1-ium-5-yl)methyl)morpholin-4-ium chloride], for which the pIC50 was < 5.80 and 4.00 under setting [2]; 6.55 and 6.28 under setting [3]; 6.15 and 6.29 under setting [4]; 6.29 and 6.35 (rEphB1-mEphrinB2, immobilized rat EphB1, 50 nM soluble mouse EphrinB2, dissociation, relative, read-out: Relative Dissociation IC50).

Turning to `O=[N+]([O-])c1cc(CN2CCOCC2)c2cccnc2c1O` [Compound 10, 4-((8-hydroxy-7-nitroquinolin-1-ium-5-yl)methyl)morpholin-4-ium chloride], the pIC50 is 5.61 under setting [5], 5.70 under setting [1], 4.00 under setting [2] and 5.27 under setting [3].

On to `O=S1(=O)CCN(Cc2ccc(O)c3ncccc23)CC1` [Compound 15, 4-((8-hydroxyquinolin-1-ium-5-yl)methyl)thiomorpholin-4-ium 1,1-dioxide chloride], for which the pIC50 is, setting by setting: under setting [1], 6.05; under setting [2], 4.00; under setting [3], 4.00.

With `Oc1ccc(CN2CCN(Cc3ccc(C(F)(F)F)cc3)CC2)c2cccnc12` [Compound 48, 5-((4-(4-(trifluoromethyl)benzyl)piperazin-1-yl)methyl)quinolin-8-ol], the pIC50 is 4.82 under setting [5], 5.63 under setting [1], 4.00 under setting [2] and below 5.00 under setting [3].
